Data reported in ChEMBL document CHEMBL4602605, “Fluoroquinolones structural and medicinal developments (2013-2018): Where are we now?” (Bioorg Med Chem, 2019).
In brackets after ≈: the same amount, converted by molar mass.

Key:
Assay type in all cases: functional
Pseudomonas aeruginosa [1] = assay: Antibacterial activity against Pseudomonas aeruginosa NCDC 105 by single disk method
Mus musculus = assay: Analgesic activity in Swiss albino mouse assessed as acetic acid-induced writhing number at 50 mg/kg pretreated for 30 mins followed by acetic acid challenge and measured after 5 to 15 mins (reference value: 30.8 +/- 0.37)
Staphylococcus aureus [2] = assay: Antibacterial activity against Staphylococcus aureus NCDC 110 by single disk method
Escherichia coli [3] = assay: Antibacterial activity against Escherichia coli NCDC 134 by single disk method
Bacillus subtilis = assay: Antibacterial activity against Bacillus subtilis NCDC 71 by single disk method
Metaphire posthuma = assay: Anthelmintic activity against Pheretima posthuma assessed as mean paralysing time at 200 mg/ml
Paenibacillus polymyxa = assay: Antibacterial activity against Paenibacillus polymyxa NCDC 64 by single disk method
Staphylococcus aureus [4] = assay: Antimicrobial activity against methicillin-susceptible Staphylococcus aureus clinical isolate incubated for 16 hrs by CLSI based agar dilution method
Klebsiella pneumoniae [5] = assay: Antimicrobial activity against Klebsiella pneumoniae ATCC 29522 incubated for 16 hrs by CLSI-based agar dilution method; conditions: ATCC 29522, 16 h
Escherichia coli [6] = assay: Antimicrobial activity against Escherichia coli ATCC 700603 incubated for 16 hrs by CLSI-based agar dilution method; conditions: ATCC 700603, 16 h
[7] = tested on: Staphylococcus epidermidis; assay: Antimicrobial activity against methicillin-susceptible Staphylococcus epidermidis clinical isolate incubated for 16 hrs by CLSI based agar dilution method
[8] = tested on: Staphylococcus epidermidis; assay: Antimicrobial activity against methicillin-resistant Staphylococcus epidermidis clinical isolate incubated for 16 hrs by CLSI based agar dilution method
Escherichia coli [9] = assay: Antimicrobial activity against ESBL non-producing Escherichia coli ATCC 25922
Enterobacter cloacae = assay: Antimicrobial activity against Enterobacter cloacae ATCC 43560
Klebsiella pneumoniae [10] = assay: Antimicrobial activity against ESBL-producing Klebsiella pneumoniae ATCC 700603
[11] = tested on: Acinetobacter calcoaceticus; assay: Antimicrobial activity against Acinetobacter calcoaceticus ATCC 19606
Pseudomonas aeruginosa [12] = assay: Antimicrobial activity against Pseudomonas aeruginosa ATCC 27853
Staphylococcus aureus [13] = assay: Antimicrobial activity against methicillin-resistant Staphylococcus aureus clinical isolate incubated for 16 hrs by CLSI based agar dilution method

Row | Compound | MIC (Pseudomonas aeruginosa [1]) [µg/mL] | MIC (Staphylococcus aureus [2]) [µg/mL] | MIC (Escherichia coli [3]) [µg/mL] | MIC (Bacillus subtilis) [µg/mL] | MIC (Paenibacillus polymyxa) [µg/mL] | MIC (Escherichia coli [9]) [µM] | MIC (Enterobacter cloacae) [µM] | MIC (Klebsiella pneumoniae [10]) [µM] | MIC [11] [µM] | MIC (Pseudomonas aeruginosa [12]) [µM] | Activity (Mus musculus) | Time (Metaphire posthuma) [min] | other results
1 | O=C(CN1CCN(c2cc3c(cc2F)c(=O)c(C(=O)O)cn3C2CC2)CC1)Nc1nc2ccc([N+](=O)[O-])cc2s1 | 45 (≈ 79.4 µM) | 50 (≈ 88.3 µM) | 35 (≈ 61.8 µM) | 25 (≈ 44.1 µM) | 55 (≈ 97.1 µM) |  |  |  |  |  | 14.2 | 22.8 | 
2 | O=C(CN1CCN(c2cc3c(cc2F)c(=O)c(C(=O)O)cn3C2CC2)CC1)Nc1nc2ccc(Cl)cc2s1 | 15 (≈ 27 µM) | 3 (≈ 5.4 µM) | 8 (≈ 14.4 µM) | 4 (≈ 7.19 µM) | 15 (≈ 27 µM) |  |  |  |  |  | 13.8 | 26 | 
3 | O=C(CN1CCN(c2cc3c(cc2F)c(=O)c(C(=O)O)cn3C2CC2)CC1)Nc1nc2c(Cl)ccc(Cl)c2s1 | 65 (≈ 110 µM) | 5 (≈ 8.47 µM) | 6 (≈ 10.2 µM) | 10 (≈ 16.9 µM) | 30 (≈ 50.8 µM) |  |  |  |  |  | 15.6 | 32.6 | 
4 | CCn1cc(C(=O)O)c(=O)c2cc(F)c(N3CCN(CC(O)Cn4cc([N+](=O)[O-])nc4Cl)CC3)c(OC)c21 (configuration not stated) |  |  |  |  |  |  |  |  |  |  |  |  | MIC (Staphylococcus aureus [4]): > 32 µg/mL; MIC (Klebsiella pneumoniae [5]): > 32 µg/mL; MIC (Escherichia coli [6]): > 32 µg/mL; MIC [7]: 32 µg/mL (≈ 57.9 µM); MIC [8]: > 32 µg/mL
5 | COc1c(N2CCN(CC(=O)Nc3nc4c(Cl)cccc4s3)C(C)C2)c(F)cc2c(=O)c(C(=O)O)cn(C3CC3)c12 (configuration not stated) | 20 (≈ 33.3 µM) | 4 (≈ 6.67 µM) | 60 (≈ 100 µM) | 75 (≈ 125 µM) | 25 (≈ 41.7 µM) |  |  |  |  |  | 19.2 | 24.6 | 
6 | COc1c(N2CCN(CC(=O)Nc3nc4c([N+](=O)[O-])cccc4s3)C(C)C2)c(F)cc2c(=O)c(C(=O)O)cn(C3CC3)c12 (configuration not stated) | 75 (≈ 123 µM) | 60 (≈ 98.3 µM) | 65 (≈ 106 µM) | 40 (≈ 65.5 µM) | 45 (≈ 73.7 µM) |  |  |  |  |  | 1.63 | 1.2 | 
7 | Cc1ccc2nc(NC(=O)CN3CCN(c4cc5c(cc4F)c(=O)c(C(=O)O)cn5C4CC4)CC3)sc2c1 | 45 (≈ 84 µM) | 40 (≈ 74.7 µM) | 20 (≈ 37.3 µM) | 35 (≈ 65.3 µM) | 110 (≈ 205 µM) |  |  |  |  |  | 16.2 | 23.2 | 
8 | COc1c(N2CCN(C(O)Cn3cc([N+](=O)[O-])nc3Cl)CC2)c(F)cc2c(=O)c(C(=O)O)cn(C3CC3)c12 (configuration not stated) |  |  |  |  |  |  |  |  |  |  |  |  | MIC (Staphylococcus aureus [4]): 0.5 µg/mL (≈ 0.908 µM); MIC (Staphylococcus aureus [13]): 8 µg/mL (≈ 14.5 µM); MIC (Klebsiella pneumoniae [5]): > 32 µg/mL; MIC (Escherichia coli [6]): 4 µg/mL (≈ 7.26 µM); MIC [7]: 0.25 µg/mL (≈ 0.454 µM); MIC [8]: 0.03 µg/mL (≈ 0.0545 µM)
9 | COc1c(N2CCN(CC(=O)Nc3nc4c(F)cccc4s3)C(C)C2)c(F)cc2c(=O)c(C(=O)O)cn(C3CC3)c12 (configuration not stated) | 50 (≈ 85.7 µM) | 15 (≈ 25.7 µM) | 140 (≈ 240 µM) | 70 (≈ 120 µM) | 25 (≈ 42.8 µM) |  |  |  |  |  | 15 | 23.6 | 
10 | CCn1cc(C(=O)O)c(=O)c2cc(F)c(N3CCN(CC(=O)Nc4nc5ccc(C)cc5s4)CC3)cc21 | 20 (≈ 38.2 µM) | 25 (≈ 47.7 µM) | 65 (≈ 124 µM) | 30 (≈ 57.3 µM) | 45 (≈ 85.9 µM) |  |  |  |  |  | 17.8 | 28.4 | 

More lines, main results first:

Row | MIC (Pseudomonas aeruginosa [1]) [µg/mL] | MIC (Staphylococcus aureus [2]) [µg/mL] | MIC (Escherichia coli [3]) [µg/mL] | MIC (Bacillus subtilis) [µg/mL] | MIC (Paenibacillus polymyxa) [µg/mL] | MIC (Escherichia coli [9]) [µM] | MIC (Enterobacter cloacae) [µM] | MIC (Klebsiella pneumoniae [10]) [µM] | MIC [11] [µM] | MIC (Pseudomonas aeruginosa [12]) [µM] | Compound | Activity (Mus musculus) | Time (Metaphire posthuma) [min] | other results
11 |  |  |  |  |  | ≤ 0.04 | 5.93 (≈ 4 µg/mL) | 1.48 (≈ 0.999 µg/mL) | 1.48 (≈ 0.999 µg/mL) | 0.09 (≈ 0.0607 µg/mL) | COc1cc(OC)cc(-c2nn(CN3CCN(c4cc5c(cc4F)c(=O)c(C(=O)O)cn5[C@@H]4C[C@@H]4F)CC3)c(=S)n2-c2ccccc2)c1 |  |  | 
12 |  |  |  |  |  | ≤ 0.04 | ≤ 0.04 | 1.47 (≈ 0.999 µg/mL) | 11.8 (≈ 8.02 µg/mL) | 1.47 (≈ 0.999 µg/mL) | O=C(O)c1cn([C@@H]2C[C@@H]2F)c2cc(N3CCN(Cn4nc(-c5cc6ccccc6cn5)n(Cc5ccccc5)c4=S)CC3)c(F)cc2c1=O |  |  | 
13 |  |  |  |  |  | ≤ 0.05 | ≤ 0.05 | 1.63 (≈ 1 µg/mL) | 6.5 (≈ 4 µg/mL) | 1.63 (≈ 1 µg/mL) | O=C(O)c1cn([C@@H]2C[C@@H]2F)c2cc(N3CCN(Cn4nc(-c5ccccn5)n(-c5ccccc5)c4=S)CC3)c(F)cc2c1=O |  |  | 
14 |  |  |  |  |  | ≤ 0.05 | ≤ 0.05 | 0.4 (≈ 0.252 µg/mL) | 6.36 (≈ 4 µg/mL) | 1.59 (≈ 1 µg/mL) | O=C(O)c1cn([C@@H]2C[C@@H]2F)c2cc(N3CCN(Cn4nc(-c5cccnc5)n(Cc5ccccc5)c4=S)CC3)c(F)cc2c1=O |  |  | 
15 |  |  |  |  |  | ≤ 0.05 | 0.79 (≈ 0.497 µg/mL) | 0.79 (≈ 0.497 µg/mL) | ≤ 0.05 | 0.79 (≈ 0.497 µg/mL) | O=C(O)c1cn([C@@H]2C[C@@H]2F)c2cc(N3CCN(Cn4nc(-c5ccccn5)n(Cc5ccccc5)c4=S)CC3)c(F)cc2c1=O |  |  | 
16 |  |  |  |  |  | ≤ 0.04 | ≤ 0.04 | 1.42 (≈ 1 µg/mL) | 5.68 (≈ 4 µg/mL) | 0.71 (≈ 0.5 µg/mL) | COc1cc(-c2nn(CN3CCN(c4cc5c(cc4F)c(=O)c(C(=O)O)cn5[C@@H]4C[C@@H]4F)CC3)c(=S)n2-c2ccccc2)cc(OC)c1OC |  |  | 
